# Results published in article PMC8685421 (Frontiers in Pharmacology, 2021).
# Where a SMILES comes first, the peptide text is derived from it. Bridges are numbered along the chain shown (N, C = ends).
# Key:
# Nav1.9 = target: T1, Nav1.9 (Homo sapiens, UniProt Q9UI33); test: Whole-cell patch-clamp, fast inactivation of Nav1.9 in ND7/23 cells; format: cell-based; details: 100 ms depolarization to −40 mV from −120 mV, Hill fit, mean ± SEM, n = 6, read-out: EC50 for inhibition of the fast inactivation of Nav1.9
# T1 construct: expressed in transfected cells; host or cells: ND7/23
# Source text: (§1) Rat Nav1.4, human Nav1.7 and rat Nav1.8 cDNA clones were kindly gift from Dr. Theodore Cummins (Stark Neurosciences Research Institute, Indiana University School of Medicine, Indianapolis, IN, United States) and were subcloned into the pCMV or pCDNA3.1-blank vectors. Human Nav1.9 was subcloned into the pEGFP-N1 vector. The C-terminal of hNav1.9 was linked to GFP to construct a fusion protein channel (hNav1.9-eGFP), which was as described in our previous studies ([Zhou et al., 2017]). Mutations were made using the site-directed mutation method or recombination-based cloning using GenBuilder™ Cloning Kit (GenScript, United States). Primers presented in Supplementary Tables 1–4. All mutations were verified by DNA sequencing.
# (§2) ND7/23 and HEK293T cells were maintained at 37°C in a humidified 5% CO2 incubator in Dulbecco’s Modified Eagle’s Medium (DMEM) supplemented with 10% fetal bovine serum, 100 μg/ml streptomycin, 100 U/ml penicillin, and 2 mM L-glutamine. The cells were trypsinized, diluted with 1 ml of culture medium, and seeded at a 1:5 ratio in 35 mm Petri dishes for culture. When grown to 80–90% confluence, the ND7/23 cells were transfected with hNav1.9-GFP or hNav1.9-GFP mutants using the X-tremeGENE HP DNA Transfection Reagent (Roche, Basel, Switzerland) according to the manufacturer’s instructions. […]
# Nav1.4 = target: T2, Nav1.4 (Rattus norvegicus, UniProt P15390); test: Whole-cell patch-clamp, Nav1.4 current in HEK293T cells; format: cell-based; details: 50 ms steps to −10 mV from −90 mV, n = 4–6, read-out: IC50 for inhibition of Nav1.4 current
# T2 construct: expressed in transfected cells; host or cells: HEK293T
# Source text: as §1, §2
# Nav1.7 = target: T3, Nav1.7 (Homo sapiens, UniProt Q15858); test: Whole-cell patch-clamp, Nav1.7 current in HEK293T cells; format: cell-based; details: 50 ms steps to −10 mV from −90 mV, n = 4–6, read-out: IC50 for inhibition of Nav1.7 current
# T3 construct: expressed in transfected cells; host or cells: HEK293T
# Source text: as §1, §2
# Nav1.9/1.8 DIV VSD = target: T4, Nav1.9/1.8 DIV VSD (Homo sapiens, UniProt Q9UI33, A1385V/A1393E/C1434F/D1399G/DEL1452-1455/H1400R/I1367A/I1373M/I1377C/I1397V/I1408V/I1415M/I1417M/I1446F/I1464V/INS1447AILK/K1392E/K1395T/L1401I/L1411G/L1414V/L1431V/L1438I/M1394K/M1445L/N1389E/P1391G/P1456Y/P1458S/R1481K/S1365R/S1374V/S1382T/S1387T/S1396K/T1444L/T1448S/V1404F/V1407A/V1435I/V1442G/V1465I/V1477I/W1403Q/Y1388D); test: Patch-clamp, chimera Nav1.9/1.8 DIV VSD; format: cell-based, human Nav1.9 / rat Nav1.8; details: mean ± SEM, n = 4; I95/Ipeak; read-out: EC50 for inhibition of the fast inactivation
# T4 construct: expressed in transfected cells; host or cells: ND7/23
# Source text: as §1, §2
# Kv2.1 channel = details: ref Chen et al., 2012; Bemporad et al., 2006; cited from earlier work
# Source text: The venom of the spider Grammostola rosea contains several classes of peptide toxins that target ion channels (Figure 1A). […] Due to poor heterologous expression in mammal cells, pharmacological studies of the Nav1.9 channel have lagged. Previously, we succeeded in achieving functional ...
# [1] = system: voltage sensor of Nav channels; details: ref Xiao et al., 2008, 2010, Zhou et al., 2020, Liu et al., 2013; cited from earlier work
# Source text: Gating modifier toxins typically affect channel gating by regulating the voltage-sensor of the channel. […] Ther ...
# Nav1.7 channel = system: Nav1.7 channel; parameters: method as in 3 sources, one per row (each row's own in cited_ref): ref Murray et al., 2015 ||| ref Chen et al., 2020 ||| ref Xiao et al., 2010; details: ProTx-II; ref Xiao et al., 2010; cited from earlier work
# T4 sequence (Q9UI33 with tags, fused parts or gaps with the stated changes): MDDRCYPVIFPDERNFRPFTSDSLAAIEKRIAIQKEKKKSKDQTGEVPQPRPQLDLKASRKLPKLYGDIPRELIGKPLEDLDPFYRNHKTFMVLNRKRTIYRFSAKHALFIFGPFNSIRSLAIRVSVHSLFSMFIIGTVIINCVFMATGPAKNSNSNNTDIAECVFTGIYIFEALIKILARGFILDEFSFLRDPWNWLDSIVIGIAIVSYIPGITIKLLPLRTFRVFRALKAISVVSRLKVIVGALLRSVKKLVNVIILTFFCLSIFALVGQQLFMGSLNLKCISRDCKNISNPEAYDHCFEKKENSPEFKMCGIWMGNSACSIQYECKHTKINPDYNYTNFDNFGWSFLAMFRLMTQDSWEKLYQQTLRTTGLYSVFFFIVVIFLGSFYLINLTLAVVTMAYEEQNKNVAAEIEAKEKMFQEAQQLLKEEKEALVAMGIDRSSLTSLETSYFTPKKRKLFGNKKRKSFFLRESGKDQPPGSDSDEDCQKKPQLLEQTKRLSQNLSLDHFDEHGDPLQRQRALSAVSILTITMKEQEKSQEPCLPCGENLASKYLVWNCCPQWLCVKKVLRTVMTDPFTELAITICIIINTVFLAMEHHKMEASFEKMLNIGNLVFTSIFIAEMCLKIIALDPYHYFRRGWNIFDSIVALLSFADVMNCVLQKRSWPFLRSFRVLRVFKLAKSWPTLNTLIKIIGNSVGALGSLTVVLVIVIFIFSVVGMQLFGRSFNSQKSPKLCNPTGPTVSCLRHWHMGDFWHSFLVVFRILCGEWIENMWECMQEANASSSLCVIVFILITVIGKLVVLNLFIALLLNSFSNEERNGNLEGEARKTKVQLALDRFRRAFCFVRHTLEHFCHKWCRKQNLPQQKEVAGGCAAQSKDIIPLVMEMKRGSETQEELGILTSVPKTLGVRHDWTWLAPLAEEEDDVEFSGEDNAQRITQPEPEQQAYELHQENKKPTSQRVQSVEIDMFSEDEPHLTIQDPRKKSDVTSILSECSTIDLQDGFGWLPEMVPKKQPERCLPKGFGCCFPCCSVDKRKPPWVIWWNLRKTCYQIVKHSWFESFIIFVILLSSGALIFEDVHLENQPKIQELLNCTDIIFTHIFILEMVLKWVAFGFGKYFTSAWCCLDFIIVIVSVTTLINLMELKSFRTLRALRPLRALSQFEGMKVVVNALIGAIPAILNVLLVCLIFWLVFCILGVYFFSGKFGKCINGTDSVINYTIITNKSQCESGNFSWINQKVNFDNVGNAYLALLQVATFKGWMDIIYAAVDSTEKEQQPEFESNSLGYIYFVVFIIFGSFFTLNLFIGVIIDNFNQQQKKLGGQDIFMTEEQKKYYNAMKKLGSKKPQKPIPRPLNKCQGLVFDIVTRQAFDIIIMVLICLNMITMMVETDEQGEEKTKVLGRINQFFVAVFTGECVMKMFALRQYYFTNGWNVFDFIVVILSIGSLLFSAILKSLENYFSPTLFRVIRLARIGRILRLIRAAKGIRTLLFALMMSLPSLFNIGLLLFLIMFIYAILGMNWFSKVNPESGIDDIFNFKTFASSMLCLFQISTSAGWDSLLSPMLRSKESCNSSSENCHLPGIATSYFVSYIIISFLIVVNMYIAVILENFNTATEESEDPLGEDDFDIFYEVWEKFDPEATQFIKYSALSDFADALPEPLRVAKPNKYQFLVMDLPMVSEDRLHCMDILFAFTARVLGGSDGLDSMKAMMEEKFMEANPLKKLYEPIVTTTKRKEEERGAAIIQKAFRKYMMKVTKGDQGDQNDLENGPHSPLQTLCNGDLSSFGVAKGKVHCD
# T2 sequence (P15390 whole entry): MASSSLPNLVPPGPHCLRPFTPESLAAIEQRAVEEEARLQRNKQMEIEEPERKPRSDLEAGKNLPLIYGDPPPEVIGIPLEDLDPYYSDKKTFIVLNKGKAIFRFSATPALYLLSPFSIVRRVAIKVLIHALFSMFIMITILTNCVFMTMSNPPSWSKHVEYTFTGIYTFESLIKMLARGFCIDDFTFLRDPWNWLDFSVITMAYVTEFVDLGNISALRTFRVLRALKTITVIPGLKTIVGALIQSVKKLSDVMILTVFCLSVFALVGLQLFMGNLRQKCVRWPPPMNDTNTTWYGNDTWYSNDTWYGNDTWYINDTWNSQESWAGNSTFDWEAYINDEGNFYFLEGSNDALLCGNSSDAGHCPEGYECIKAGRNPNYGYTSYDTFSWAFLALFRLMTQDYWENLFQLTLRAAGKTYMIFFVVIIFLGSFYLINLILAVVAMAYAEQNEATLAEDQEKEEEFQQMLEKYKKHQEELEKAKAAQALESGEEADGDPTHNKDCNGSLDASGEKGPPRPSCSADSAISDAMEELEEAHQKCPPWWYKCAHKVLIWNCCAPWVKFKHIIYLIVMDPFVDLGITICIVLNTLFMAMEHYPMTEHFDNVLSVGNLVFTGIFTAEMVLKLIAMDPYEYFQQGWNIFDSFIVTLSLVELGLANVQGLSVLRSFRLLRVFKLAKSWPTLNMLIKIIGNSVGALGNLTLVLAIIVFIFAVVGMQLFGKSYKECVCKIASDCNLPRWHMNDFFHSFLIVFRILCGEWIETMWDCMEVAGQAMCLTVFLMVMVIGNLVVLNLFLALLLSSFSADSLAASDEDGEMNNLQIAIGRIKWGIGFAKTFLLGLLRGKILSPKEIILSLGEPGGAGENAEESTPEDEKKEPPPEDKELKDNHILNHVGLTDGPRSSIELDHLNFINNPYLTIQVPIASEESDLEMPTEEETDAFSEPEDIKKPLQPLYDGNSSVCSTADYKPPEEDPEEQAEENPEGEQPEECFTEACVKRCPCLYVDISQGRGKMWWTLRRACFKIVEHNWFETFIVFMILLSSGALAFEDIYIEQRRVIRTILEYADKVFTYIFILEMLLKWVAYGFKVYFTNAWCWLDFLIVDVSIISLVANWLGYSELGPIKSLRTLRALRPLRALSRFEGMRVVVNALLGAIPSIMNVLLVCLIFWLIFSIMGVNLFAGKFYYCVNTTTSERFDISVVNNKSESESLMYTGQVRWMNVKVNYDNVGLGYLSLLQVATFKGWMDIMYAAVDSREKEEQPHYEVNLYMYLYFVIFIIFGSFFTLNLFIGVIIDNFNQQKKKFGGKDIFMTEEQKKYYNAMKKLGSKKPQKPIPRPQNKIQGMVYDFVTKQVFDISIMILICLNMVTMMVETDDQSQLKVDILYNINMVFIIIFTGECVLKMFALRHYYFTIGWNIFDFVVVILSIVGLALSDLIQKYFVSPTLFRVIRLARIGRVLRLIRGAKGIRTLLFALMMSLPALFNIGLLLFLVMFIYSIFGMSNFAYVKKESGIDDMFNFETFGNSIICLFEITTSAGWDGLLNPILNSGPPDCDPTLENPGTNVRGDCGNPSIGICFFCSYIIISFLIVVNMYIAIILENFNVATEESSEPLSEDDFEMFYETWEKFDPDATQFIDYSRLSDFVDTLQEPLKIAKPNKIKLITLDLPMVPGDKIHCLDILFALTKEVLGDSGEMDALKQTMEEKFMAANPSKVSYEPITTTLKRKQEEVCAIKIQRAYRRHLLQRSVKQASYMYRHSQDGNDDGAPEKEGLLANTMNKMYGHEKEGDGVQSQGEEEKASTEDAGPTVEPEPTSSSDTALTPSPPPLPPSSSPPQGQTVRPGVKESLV
molecule,measurement,setting,value
"CC[C@H](C)[C@@H]1NC(=O)[C@H](CC(N)=O)NC(=O)[C@@H]2CCCN2C(=O)[C@H](Cc2c[nH]c3ccccc23)NC(=O)[C@H](CCCCN)NC(=O)[C@H](CCCNC(=N)N)NC(=O)[C@H](CCCCN)NC(=O)[C@@H]2CSSC[C@@H]3NC(=O)[C@H](CO)NC(=O)CNC(=O)[C@H](Cc4c[nH]c5ccccc45)NC(=O)[C@H](Cc4ccccc4)NC(=O)[C@H](CCC(N)=O)NC(=O)[C@H](CCCCN)NC(=O)[C@@H](NC(=O)[C@@H](N)CCC(=O)O)CSSC[C@H](NC(=O)[C@H](CSSC[C@@H](C(=O)N[C@@H](CC(C)C)C(=O)N[C@@H](Cc4c[nH]c5ccccc45)C(=O)N[C@@H](CC(=O)O)C(=O)NCC(=O)N[C@H](C(=O)N[C@@H](Cc4ccccc4)C(=O)N[C@@H](CO)C(=O)N[C@@H](CCCCN)C(=O)O)[C@@H](C)O)NC1=O)NC(=O)[C@H](CC(=O)O)NC(=O)[C@H](CO)NC(=O)[C@H](CC(=O)O)NC(=O)[C@H](CCCNC(=N)N)NC(=O)[C@H](CO)NC3=O)C(=O)N[C@@H](CCCCN)C(=O)N[C@@H](Cc1c[nH]cn1)C(=O)N[C@@H](CC(C)C)C(=O)NCC(=O)N2 [Gr4b, δ-theraphotoxin-Gr4b] (H-ECKQFWGSCSRDSDCCKHLGCKRKWPNICLWDGTFSK-OH; disulfide 2-16, 9-21, 15-29)",EC50,Nav1.9,25 ± 1 nM
same,IC50,Nav1.4,411 ± 184 nM
same,IC50,Nav1.7,27 ± 3 nM
same,EC50,Nav1.9/1.8 DIV VSD,1500 ± 250 nM
"HaTx1 (ECRYLFGGCKTTSDCCKHLGCKFRDKYCAWDFTFS; UniProt P56852 50-84, looked up)",inhibition of Kv2.1 currents,Kv2.1 channel,significantly inhibit the currents of the Kv2.1 channel
HWTX-IV,reversal of toxin binding by depolarization,[1],reversed by prolonged strong depolarizations
ProTx-II,"inhibition of Nav1.7 current, voltage dependence",Nav1.7 channel,inhibits the current of the Nav1.7 channel with a significant voltage dependence
